Reference: ChEMBL document CHEMBL1140601, “Quantitative structure-activity relationship (QSAR) of tacrine derivatives against acetylcholinesterase (AChE) activity using variable selections” (Bioorg Med Chem Lett, 2007)

Biological target: Acetylcholinesterase (Homo sapiens) (UniProt P22303)
Sequence (P22303 whole entry): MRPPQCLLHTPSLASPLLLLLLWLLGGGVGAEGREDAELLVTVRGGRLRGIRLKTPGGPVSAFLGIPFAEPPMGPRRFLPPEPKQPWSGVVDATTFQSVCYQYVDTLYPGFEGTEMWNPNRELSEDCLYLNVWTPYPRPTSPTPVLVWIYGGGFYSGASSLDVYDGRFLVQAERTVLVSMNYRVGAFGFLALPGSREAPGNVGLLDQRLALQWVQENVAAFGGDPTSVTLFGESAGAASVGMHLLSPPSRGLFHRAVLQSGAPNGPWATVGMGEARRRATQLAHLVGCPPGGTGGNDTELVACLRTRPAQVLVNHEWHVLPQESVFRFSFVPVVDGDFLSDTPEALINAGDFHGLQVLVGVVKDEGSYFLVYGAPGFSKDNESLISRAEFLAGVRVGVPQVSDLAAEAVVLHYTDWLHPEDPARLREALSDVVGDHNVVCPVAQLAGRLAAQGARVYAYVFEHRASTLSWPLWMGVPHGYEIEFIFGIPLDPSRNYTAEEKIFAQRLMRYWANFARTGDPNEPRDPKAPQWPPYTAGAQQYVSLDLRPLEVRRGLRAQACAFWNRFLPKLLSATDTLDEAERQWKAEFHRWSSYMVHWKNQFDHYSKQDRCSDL
Description: Inhibition of AchE relative to tacrine

Point of comparison: CCOC(=O)C1=C(C)Oc2nc3c(c(N)c2C1c1cccc([N+](=O)[O-])c1)CCCC3 (stereo unspecified), logRA -1.16. Against it:
- Cc1ccc2c(c1)-c1nc3ccccc3c(N)c1C2 — within 0.2 log units, -1.26
- CCOC(=O)C1=C(C)Oc2nc3c(c(N)c2C1c1ccncc1)CCCC3 (stereo unspecified) — within 0.2 log units, -1.33
- CCOC(=O)C1=C(C)Oc2nc3c(c(N)c2C1c1ccncc1)CCC3 (stereo unspecified) — lower, -1.67
- CCOC(=O)C1=C(C)Oc2nc3c(c(N)c2C1c1ccc(OC)cc1)CCCC3 (stereo unspecified) — higher, -0.825
- CCOC(=O)c1c(C)nc2nc3c(c(N)c2c1-c1ccc(OC)c(OC)c1)CCCCC3 — lower, -1.55
- CCOC(=O)c1c(C)nc2nc3c(c(N)c2c1-c1cccc([N+](=O)[O-])c1)CCCC3 — higher, -0.713
- CC1=CC2Cc3nc4cc(Cl)ccc4c(NCCCCCCNc4c5c(nc6cc(Cl)ccc46)CCCC5)c3C(C1)C2 (stereo unspecified) — higher, 2.66
- Nc1ccc2nc3c(c(N)c2c1)Cc1ccccc1-3 — lower, -1.37
- Nc1c2c(nc3ccccc13)CSCC2O (stereo unspecified) — higher, -0.852
- CCOC(=O)c1c(C)nc2nc3c(c(N)c2c1-c1ccncc1)CCCCC3 — lower, -1.56
- CC1=CC2Cc3nc4cc(Cl)ccc4c(NCCCCCCNc4c5c(nc6ccccc46)CCCC5)c3C(C1)C2 (stereo unspecified) — higher, 2.61
- CCOC(=O)C1=C(C)Oc2nc3c(c(N)c2C1c1ccncc1)CCCCC3 (stereo unspecified) — lower, -1.79
- Fc1ccc2c(NCCCCCCCNc3c4c(nc5ccccc35)CCC4)c3c(nc2c1)CCC3 — higher, 0.647
- CCOC(=O)c1c(C)nc2nc3c(c(N)c2c1-c1ccc(F)cc1)CCCC3 — higher, -0.596
- CCOC(=O)c1c(C)nc2nc3c(c(N)c2c1-c1ccc(F)cc1)CCCCC3 — lower, -1.48
- CCOC(=O)c1c(C)nc2nc3c(c(N)c2c1-c1ccc(OC)cc1)CCC3 — lower, -2.02
- Nc1c2c(nc3cc(F)ccc13)-c1ccccc1C2 — higher, -0.681
- c1ccc2c(NCCCCCCNc3c4c(nc5ccccc35)CCCC4)c3c(nc2c1)CCCC3 — higher, 2.38
- CCOC(=O)C1=C(C)Oc2nc3c(c(N)c2C1c1ccc(C)cc1)CCCC3 (stereo unspecified) — within 0.2 log units, -1.15
- Nc1c2c(nc3ccccc13)C[S+]([O-])CC2O (stereo unspecified) — higher, -0.745
- CC1=CC2Cc3nc4cc(Cl)ccc4c(NCCCN(C)CCCNc4c5c(nc6ccccc46)CCCC5)c3C(C1)C2 (stereo unspecified) — higher, 2.81
- CCOC(=O)c1c(C)nc2nc3c(c(N)c2c1-c1cccn1C(C)=O)CCCC3 — within 0.2 log units, -1.08
- CCOC(=O)C1=C(C)Oc2nc3c(c(N)c2C1c1ccccc1OC)CCCC3 (stereo unspecified) — lower, -1.63
- Nc1c2c(nc3ccccc13)-c1ccc(Cl)cc1C2 — within 0.2 log units, -1.33
- O=C(CNc1c2c(nc3ccccc13)CCCC2)NCCC1CCN(c2ccccc2)CC1 — higher, 1.57
- COc1ccc2c(c1)Cc1c-2nc2ccccc2c1N — lower, -1.42
- CCOC(=O)c1c(C)nc2nc3c(c(N)c2c1-c1ccccc1)CCCC3 — higher, -0.801
- c1ccc2c(NCCCCCCNc3c4c(nc5ccccc35)CCCCC4)c3c(nc2c1)CCCCC3 — higher, 2.19
- CCOC(=O)c1c(C)nc2nc3c(c(N)c2c1-c1ccccc1)CCC3 — lower, -1.96
- CCOC(=O)c1c(C)nc2nc3c(c(N)c2c1-c1cccc(OC)c1)CCCC3 — higher, -0.824
- CCOC(=O)C1=C(C)Oc2nc3c(c(N)c2C1c1ccccc1OC)CCC3 (stereo unspecified) — lower, -2.12
- c1ccc2c(NCCCCCCCCNc3c4c(nc5ccccc35)CCCC4)c3c(nc2c1)CCCC3 — higher, 2.32
- CCOC(=O)C1=C(C)Oc2nc3c(c(N)c2C1c1ccccc1)CCC3 (stereo unspecified) — lower, -1.48
- CCOC(=O)C1=C(C)Oc2nc3c(c(N)c2C1c1ccccc1)CCCC3 (stereo unspecified) — within 0.2 log units, -1.08
- CCOC(=O)C1=C(C)Oc2nc3c(c(N)c2C1c1ccc(OC)c(OC)c1)CCCCC3 (stereo unspecified) — lower, -2.26
- CCOC(=O)c1c(C)nc2nc3c(c(N)c2c1-c1ccncc1)CCCC3 — within 0.2 log units, -1
- COc1ccc2c(c1)-c1nc3ccccc3c(N)c1C2 — within 0.2 log units, -1.24
- CCOC(=O)c1c(C)nc2nc3c(c(N)c2c1-c1ccc(Cl)cc1)CCCC3 — higher, -0.859
- Nc1c2c(nc3ccccc13)CSCC2=O — higher, -0.745
- CCOC(=O)c1c(C)nc2nc3c(c(N)c2c1-c1cccs1)CCC3 — lower, -2.3
- CCOC(=O)c1c(C)nc2nc3c(c(N)c2c1-c1ccncc1)CCC3 — lower, -1.77
- CC1=CC2Cc3nc4cc(Cl)ccc4c(NCCCCCCCCNc4c5c(nc6ccccc46)CCCC5)c3C(C1)C2 (stereo unspecified) — higher, 2.79
- CCOC(=O)C1=C(C)Oc2nc3c(c(N)c2C1c1ccc(C#N)cc1)CCCC3 (stereo unspecified) — lower, -1.43
- CCOC(=O)c1c(C)nc2nc3c(c(N)c2c1-c1cccs1)CCCCC3 — lower, -2.01
- CC1=CC2Cc3nc4ccccc4c(NCCCCCCCCNc4c5c(nc6ccccc46)CCCC5)c3C(C1)C2 (stereo unspecified) — higher, 2.4
- CCOC(=O)C1=C(C)Oc2nc3c(c(N)c2C1c1ccc(OC)c(OC)c1)CCC3 (stereo unspecified) — lower, -2.18
- CNc1c2c(nc3ccccc13)-c1ccccc1C2 — higher, -0.716
- CC1=CC2Cc3nc4cc(Cl)ccc4c(NCCCCCCCCNc4c5c(nc6cc(Cl)ccc46)CCCC5)c3C(C1)C2 (stereo unspecified) — higher, 2.71
- Nc1c2c(nc3cc(Cl)ccc13)-c1ccccc1C2 — lower, -1.42
- CCOC(=O)C1=C(C)Oc2nc3c(c(N)c2C1c1ccc(OC)c(OC)c1)CCCC3 (stereo unspecified) — lower, -1.41
- COc1cccc2c1Cc1c-2nc2ccccc2c1N — higher, -0.806
- Nc1c2c(nc3ccccc13)-c1ccccc1C2 — higher, -0.435
- CCOC(=O)C1=C(C)Oc2nc3c(c(N)c2C1c1cccnc1)CCCC3 (stereo unspecified) — lower, -1.71
- Cc1nc2nc3c(c(N)c2c(-c2ccccc2)c1C(=O)OC(C)C)CCCC3 — higher, -0.824
- CC1=CC2Cc3nc4cc(Cl)ccc4c(NCCCN(C)CCCNc4c5c(nc6cc(Cl)ccc46)CCCC5)c3C(C1)C2 (stereo unspecified) — higher, 2.85
- CC1=CC2Cc3nc4cc(Cl)ccc4c(NCCCCCCCNc4c5c(nc6ccccc46)CCCC5)c3C(C1)C2 (stereo unspecified) — higher, 2.78
- CCOC(=O)c1c(C)nc2nc3c(c(N)c2c1-c1ccc(OC)cc1)CCCC3 — lower, -1.84
- CCOC(=O)c1c(C)nc2nc3c(c(N)c2c1-c1ccccc1)CCCCC3 — higher, -0.768
- Fc1ccc2c(NCCCCCCCCNc3c4c(nc5cc(F)ccc35)CCCC4)c3c(nc2c1)CCCC3 — higher, 2.68
- c1ccc2c(NCCCCCCCNc3c4c(nc5ccccc35)CCCC4)c3c(nc2c1)CCCC3 — higher, 2.41
- CCOC(=O)c1c(C)nc2nc3c(c(N)c2c1-c1ccc(OC)cc1)CCCCC3 — within 0.2 log units, -1.02
- CCOC(=O)c1c(C)nc2nc3c(c(N)c2c1-c1ccc(OC)c(OC)c1)CCCC3 — higher, -0.859
- CCOC(=O)C1=C(C)Oc2nc3c(c(N)c2C1c1ccccc1OC)CCCCC3 (stereo unspecified) — lower, -2.07
- Fc1ccc2c(NCCCCCCNc3c4c(nc5cc(F)ccc35)CCCC4)c3c(nc2c1)CCCC3 — higher, 2.57
- CCOC(=O)c1c(C)nc2nc3c(c(N)c2c1-c1cccs1)CCCC3 — lower, -2.25
- CC1=CC2Cc3nc4cc(Cl)ccc4c(NCCCCCCCNc4c5c(nc6cc(Cl)ccc46)CCCC5)c3C(C1)C2 (stereo unspecified) — higher, 2.79
- CCOC(=O)C1=C(C)Oc2nc3c(c(N)c2C1c1ccc(Cl)cc1)CCCC3 (stereo unspecified) — within 0.2 log units, -1.17
- Cc1cccc2c1Cc1c-2nc2ccccc2c1N — within 0.2 log units, -1.19
- CCOC(=O)C1=C(C)Oc2nc3c(c(N)c2C1c1cccc(OC)c1)CCCCC3 (stereo unspecified) — lower, -1.86
- Clc1ccc2c(NCCCCCCNc3c4c(nc5cc(Cl)ccc35)CCCC4)c3c(nc2c1)CCCC3 — higher, 2.74
